Test results as given in patent US12559475B2, “Tetrazine compound capable of having rapid cycloaddition reaction with non-strained olefinic boronic acid and biomedical application thereof” (NANJING UNIVERSITY, priority 2024, dated 2026).

Legend:
[1] = tested on: HepG2 cells; assay: Toxicity (MTT cell survival) in HepG2 cells; assay type: cell-based; conditions: for IC50: Homo sapiens, HepG2, 48 h incubation, 1% FBS DMEM, MTT
Protocol: Toxicity of the tetrazine Tz-2, the doxorubicin prodrug DOX-VBA, the addition product, and the doxorubicin DOX were first tested.
HepG2 cells were plated in a 96-well plate and attached overnight; 1% FBS DMEM was used as a culture medium on the next day, different concentrations of Tz-2, DOX-VBA, product, and DOX were then added to the culture medium, and incubation was performed at 37° C. for 48 h; and 50 μL 1×MTT was added, the reaction continued for 4 h, DMSO was added to remove the culture medium, and cell survival rates at different concentrations were tested to calculate IC50 values (the cell survival rates were shown in FIG. 6).

[2] = Stability testing of tetrazine compounds in 10% FBS/DMEM (HPLC residual amount); assay type: physicochemical; conditions: 100 µM, 2.5% DMSO
Protocol: Specific implementation method: The tetrazine compounds were respectively dissolved in a 10% FBS/DMEM solution at a concentration of 100 µM (the solution contained 2.5% DMSO as a solubilizing agent), and residual amounts of tetrazine compounds were monitored via HPLC after 6 hours and 24 hours to analyze the stability of tetrazine compounds in a biological environment.

[3] = Reaction rate testing of tetrazine compounds and styryl boronic acid (HPLC); conditions: tetrazine 1 mM, styryl boronic acid 0.2 mM, methanol
Protocol: Specific implementation method: HPLC was used to test reaction rates by monitoring residual amounts of tetrazine compounds after different tetrazine compounds reacted with styryl boronic acid, where a molar concentration of the tetrazine compounds was 1 mM, and a molar concentration of styryl boronic acid was 0.2 mM, and a solvent was methanol solution.

[4] = Molecular release testing of tetrazine compound and styryl boronic acid derivative VBA-2 (NMR); conditions: Tz-2 + VBA-2, 0.02 M, deuterated DMSO:deuterated H2O=9:1, NMR
Protocol: Specific implementation method: the tetrazine compound Tz-2 and the styryl boronic acid derivative VBA-2 were dissolved in a deuterated solution (deuterated DMSO:deuterated H2O=9:1) at a molar concentration of 0.02 M. Reactions after 5 min, 12 h and 24 h were tested using a 500 MHz a nuclear magnetic resonance analyzer, and characteristic signal peaks of reactants and products on a hydrogen spectrum were tested to assess molecular release.

| residual amount of tetrazine compound ([2]; 6 h) | residual amount of tetrazine compound ([2]; 24 h) | SMILES | IC50 [1] | k2 [3] | toxicity (in words) ([1]; HepG2 cells) | time in which half of the benzylamine molecules were released [4] |
| --- | --- | --- | --- | --- | --- | --- |
| 99% | 90% | COc1c(C)cnc(-c2nnc(-c3ccccc3)nn2)c1C [Tz-16] | – | 28 M⁻¹ s⁻¹ | – | – |
| 35% | 1% | c1ccc(-c2nnc(-c3ccccn3)nn2)nc1 [Tz-Py, reference compound] | – | 1.4 M⁻¹ s⁻¹ | – | – |

Second part, the molecule before the results:

| SMILES | residual amount of tetrazine compound ([2]; 6 h) | residual amount of tetrazine compound ([2]; 24 h) | IC50 [1] | k2 [3] | toxicity (in words) ([1]; HepG2 cells) | time in which half of the benzylamine molecules were released [4] |
| --- | --- | --- | --- | --- | --- | --- |
| COc1cccc2c1C(=O)c1c(O)c3c(c(O)c1C2=O)C[C@@](O)(C(=O)CO)C[C@@H]3O[C@H]1C[C@H](N)[C@H](O)[C@H](C)O1 [DOX, doxorubicin, reference compound] | – | – | 500 nM | – | – | – |
| COc1ccnc(-c2nnc(-c3ccccn3)nn2)c1C [Tz-2] | 55% | 17% | > 100000 nM | 168 M⁻¹ s⁻¹ | non-toxic | 12 h |
| COc1ccnc(-c2nnc(-c3ccc(CNC(=O)OC(C)(C)C)cc3)nn2)c1C [Tz-11] | 99% | 92% | – | 23 M⁻¹ s⁻¹ | – | – |
| COc1ccnc(-c2nnc(-c3ccccc3)nn2)c1C [Tz-1] | 99% | 85% | – | 56 M⁻¹ s⁻¹ | – | – |
| COc1ccnc(-c2nnc(-c3ccc(NC(=O)OC(C)(C)C)cc3)nn2)c1C [Tz-10] | 99% | 92% | – | 45 M⁻¹ s⁻¹ | – | – |
